According to patent publication US6495591B1, “Fungal efflux pump inhibitors” (Essential Therapeutics, Inc., priority 1997, dated 2002):

What was measured:
[1] = biological target: pCDRI (ABC) efflux pump in S. cerevisiae YEM-1 (Candida albicans, UniProt P43071); test: cell-based; type: cell-based, C. albicans; conditions: YEM-1 pCDRI; fluconazole fixed at FLUhalf 5.6
[2] = biological target: pFLU (MF) efflux pump in S. cerevisiae YEM-38 (Candida albicans, UniProt G1UB37); test: cell-based; type: cell-based, C. albicans; conditions: YEM-38 pFLU; fluconazole fixed at FLUhalf 2
[3] = tested on: C. krusei YEM-52 (ATCC 90878), wild type; test: Minimal concentration to reduce fluconazole MIC sixteen-fold (Table 7); type: cell-based; conditions: YEM-52, wild type
[4] = biological target: pCDR2 (ABC) efflux pump in S. cerevisiae YEM-37 (Candida albicans, UniProt P78595); test: cell-based; type: cell-based, C. albicans; conditions: YEM-37 pCDR2; fluconazole fixed at FLUhalf 1
[5] = biological target: pBEN (MF) efflux pump in S. cerevisiae YEM-2 (Candida albicans, UniProt P28873); test: cell-based; type: cell-based, C. albicans; conditions: YEM-2 pBEN; fluconazole fixed at FLUhalf 5.6
[6] = tested on: C. krusei YEM-52 (ATCC 90878), wild type; test: Broth dilution MIC, fluconazole with/without milbemycin oxime (Table 6); type: cell-based; conditions: YEM-52; milbemycin oxime 2.5 μg/ml
[7] = tested on: YEM 24 C. albicans ΔCDR1, ΔCDR2; test: microbe, parasite or virus in culture; type: cell-based; conditions: YEM 24, 24 hrs, 80% inhibition
[8] = tested on: YEM 17 C. glabrata, CgCDR up; type: cell-based; conditions: 24 hrs, 80% inhibition
[9] = tested on: C. albicans YEM-15 (CDR1 & CDR2 overexpressor); type: cell-based
YEM 53 C. krusei = test: FEPI MIC with/without 1/8 fluconazole MIC at 24 hrs (Table 11); type: cell-based; conditions: YEM 53, 24 hrs, 80% inhibition
YEM 51 C. glabrata wt = test: as above; type: cell-based; conditions: YEM 51, 24 hrs, 80% inhibition
Aspergillus fumigatus = test: FEPI MICs in combination with 1/4 the azole's MIC (Table 12); type: cell-based; set-up: FEPI MIC (alone): unit not given here
Description: The combinations were tested against a series of Candida strain with known expression of efflux pumps or with complete deletion of all known pumps and Aspergillus fumigatus. Results are reported as minimum inhibitory concentration (MIC) of […] in the presence or absence of […]. A total of 27 distinct milbemycins were studied.

C. albicans YEM-13 (BEN) = type: cell-based
[10] = tested on: YEM 15 C. albicans, CDR1CDR2 up; test: microbe, parasite or virus in culture; type: cell-based; conditions: YEM 15, 24 hrs, 80% inhibition
YEM 30 C. albicans wt = test: FEPI MIC with/without 1/8 fluconazole MIC at 24 hrs (Table 11); type: cell-based; conditions: YEM 30, 24 hrs, 80% inhibition
[11] = tested on: YEM 13 C. albicans BEN up; test: microbe, parasite or virus in culture; type: cell-based; conditions: YEM 13, 24 hrs, 80% inhibition
[12] = biological target: pCgCDR (ABC) efflux pump in S. cerevisiae YEM-39 (Candida glabrata, UniProt Q6FK23); test: cell-based; type: cell-based, C. glabrata; conditions: YEM-39 pCgCDR; fluconazole fixed at FLUhalf 4
[13] = tested on: YEM 27 C. albicans ΔCDR1ΔCDR2 ΔBENΔFLU1; test: microbe, parasite or virus in culture; type: cell-based; conditions: YEM 27, 24 hrs, 80% inhibition
[14] = tested on: pCgBEN (MF) efflux pump in S. cerevisiae YEM-40; type: cell-based, C. glabrata
[15] = tested on: C. glabrata YEM-19 (CgCDR overexpressor); type: cell-based

pFLU (MF) efflux pump in S. cerevisiae YEM-38, sequence (G1UB37 whole entry): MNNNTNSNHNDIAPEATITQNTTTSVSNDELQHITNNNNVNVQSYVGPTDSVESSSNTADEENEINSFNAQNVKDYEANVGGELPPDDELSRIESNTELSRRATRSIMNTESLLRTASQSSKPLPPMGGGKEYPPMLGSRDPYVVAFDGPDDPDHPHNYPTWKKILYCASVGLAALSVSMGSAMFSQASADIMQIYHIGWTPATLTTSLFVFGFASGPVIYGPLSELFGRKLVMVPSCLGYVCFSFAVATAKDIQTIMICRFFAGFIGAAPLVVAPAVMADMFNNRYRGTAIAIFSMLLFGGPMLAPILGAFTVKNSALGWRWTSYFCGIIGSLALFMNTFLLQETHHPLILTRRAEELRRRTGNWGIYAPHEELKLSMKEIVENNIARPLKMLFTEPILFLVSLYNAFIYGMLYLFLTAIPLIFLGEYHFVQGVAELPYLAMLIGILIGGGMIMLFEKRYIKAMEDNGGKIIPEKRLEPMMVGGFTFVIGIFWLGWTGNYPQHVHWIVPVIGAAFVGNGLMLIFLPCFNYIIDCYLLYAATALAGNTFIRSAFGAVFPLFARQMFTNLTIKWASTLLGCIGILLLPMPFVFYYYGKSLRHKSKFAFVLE
pCgCDR (ABC) efflux pump in S. cerevisiae YEM-39, sequence (Q6FK23 whole entry): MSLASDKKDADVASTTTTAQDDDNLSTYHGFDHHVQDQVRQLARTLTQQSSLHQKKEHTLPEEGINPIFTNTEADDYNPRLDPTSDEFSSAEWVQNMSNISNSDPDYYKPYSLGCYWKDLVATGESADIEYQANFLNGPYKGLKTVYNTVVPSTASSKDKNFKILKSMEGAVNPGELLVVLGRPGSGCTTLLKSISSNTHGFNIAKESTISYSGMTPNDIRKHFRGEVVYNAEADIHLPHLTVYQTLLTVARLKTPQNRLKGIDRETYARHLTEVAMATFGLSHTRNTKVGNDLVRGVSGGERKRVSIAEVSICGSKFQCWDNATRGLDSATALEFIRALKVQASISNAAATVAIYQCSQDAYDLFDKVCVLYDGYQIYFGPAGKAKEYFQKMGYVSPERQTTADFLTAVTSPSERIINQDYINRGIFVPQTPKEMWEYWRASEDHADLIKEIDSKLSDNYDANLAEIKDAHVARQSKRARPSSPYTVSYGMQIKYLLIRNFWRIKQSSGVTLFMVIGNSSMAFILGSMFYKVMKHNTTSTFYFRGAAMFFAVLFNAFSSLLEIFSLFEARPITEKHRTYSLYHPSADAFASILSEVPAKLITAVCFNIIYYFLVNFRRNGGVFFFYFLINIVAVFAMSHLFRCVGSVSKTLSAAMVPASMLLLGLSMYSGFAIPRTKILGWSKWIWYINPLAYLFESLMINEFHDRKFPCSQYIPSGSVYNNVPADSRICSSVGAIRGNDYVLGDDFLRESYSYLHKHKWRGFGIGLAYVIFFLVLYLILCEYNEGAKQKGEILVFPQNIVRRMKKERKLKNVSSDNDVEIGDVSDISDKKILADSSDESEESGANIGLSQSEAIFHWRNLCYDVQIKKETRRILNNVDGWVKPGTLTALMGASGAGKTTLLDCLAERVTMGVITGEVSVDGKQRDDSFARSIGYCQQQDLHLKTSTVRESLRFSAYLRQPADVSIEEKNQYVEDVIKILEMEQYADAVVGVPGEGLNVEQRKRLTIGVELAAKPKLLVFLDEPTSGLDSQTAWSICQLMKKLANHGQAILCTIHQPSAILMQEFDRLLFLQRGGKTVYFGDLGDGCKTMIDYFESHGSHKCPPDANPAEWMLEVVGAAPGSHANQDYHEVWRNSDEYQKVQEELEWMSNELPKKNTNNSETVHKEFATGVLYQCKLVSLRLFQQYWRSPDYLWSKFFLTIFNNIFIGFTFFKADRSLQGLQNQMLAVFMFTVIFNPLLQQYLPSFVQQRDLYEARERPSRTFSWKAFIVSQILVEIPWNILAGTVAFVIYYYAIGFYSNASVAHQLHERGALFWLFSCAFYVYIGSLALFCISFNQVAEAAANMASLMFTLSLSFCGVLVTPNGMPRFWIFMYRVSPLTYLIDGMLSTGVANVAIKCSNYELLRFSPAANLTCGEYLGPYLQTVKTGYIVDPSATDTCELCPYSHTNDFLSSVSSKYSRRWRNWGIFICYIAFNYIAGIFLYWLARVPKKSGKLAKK
pBEN (MF) efflux pump in S. cerevisiae YEM-2, sequence (P28873 whole entry): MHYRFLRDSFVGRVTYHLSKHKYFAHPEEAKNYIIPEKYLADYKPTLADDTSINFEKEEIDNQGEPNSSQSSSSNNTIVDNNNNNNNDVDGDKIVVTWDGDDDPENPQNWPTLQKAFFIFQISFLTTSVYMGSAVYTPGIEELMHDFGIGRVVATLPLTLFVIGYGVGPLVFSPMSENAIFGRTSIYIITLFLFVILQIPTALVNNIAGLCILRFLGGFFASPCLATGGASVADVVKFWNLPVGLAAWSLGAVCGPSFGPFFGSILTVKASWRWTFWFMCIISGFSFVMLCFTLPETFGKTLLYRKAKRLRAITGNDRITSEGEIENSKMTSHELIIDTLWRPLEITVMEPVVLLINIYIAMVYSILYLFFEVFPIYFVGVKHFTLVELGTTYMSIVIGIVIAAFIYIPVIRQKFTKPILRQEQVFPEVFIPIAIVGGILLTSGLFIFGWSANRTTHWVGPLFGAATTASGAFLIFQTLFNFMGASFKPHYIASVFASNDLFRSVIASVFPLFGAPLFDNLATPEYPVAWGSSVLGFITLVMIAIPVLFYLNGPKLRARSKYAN
pCDR2 (ABC) efflux pump in S. cerevisiae YEM-37, sequence (P78595 whole entry): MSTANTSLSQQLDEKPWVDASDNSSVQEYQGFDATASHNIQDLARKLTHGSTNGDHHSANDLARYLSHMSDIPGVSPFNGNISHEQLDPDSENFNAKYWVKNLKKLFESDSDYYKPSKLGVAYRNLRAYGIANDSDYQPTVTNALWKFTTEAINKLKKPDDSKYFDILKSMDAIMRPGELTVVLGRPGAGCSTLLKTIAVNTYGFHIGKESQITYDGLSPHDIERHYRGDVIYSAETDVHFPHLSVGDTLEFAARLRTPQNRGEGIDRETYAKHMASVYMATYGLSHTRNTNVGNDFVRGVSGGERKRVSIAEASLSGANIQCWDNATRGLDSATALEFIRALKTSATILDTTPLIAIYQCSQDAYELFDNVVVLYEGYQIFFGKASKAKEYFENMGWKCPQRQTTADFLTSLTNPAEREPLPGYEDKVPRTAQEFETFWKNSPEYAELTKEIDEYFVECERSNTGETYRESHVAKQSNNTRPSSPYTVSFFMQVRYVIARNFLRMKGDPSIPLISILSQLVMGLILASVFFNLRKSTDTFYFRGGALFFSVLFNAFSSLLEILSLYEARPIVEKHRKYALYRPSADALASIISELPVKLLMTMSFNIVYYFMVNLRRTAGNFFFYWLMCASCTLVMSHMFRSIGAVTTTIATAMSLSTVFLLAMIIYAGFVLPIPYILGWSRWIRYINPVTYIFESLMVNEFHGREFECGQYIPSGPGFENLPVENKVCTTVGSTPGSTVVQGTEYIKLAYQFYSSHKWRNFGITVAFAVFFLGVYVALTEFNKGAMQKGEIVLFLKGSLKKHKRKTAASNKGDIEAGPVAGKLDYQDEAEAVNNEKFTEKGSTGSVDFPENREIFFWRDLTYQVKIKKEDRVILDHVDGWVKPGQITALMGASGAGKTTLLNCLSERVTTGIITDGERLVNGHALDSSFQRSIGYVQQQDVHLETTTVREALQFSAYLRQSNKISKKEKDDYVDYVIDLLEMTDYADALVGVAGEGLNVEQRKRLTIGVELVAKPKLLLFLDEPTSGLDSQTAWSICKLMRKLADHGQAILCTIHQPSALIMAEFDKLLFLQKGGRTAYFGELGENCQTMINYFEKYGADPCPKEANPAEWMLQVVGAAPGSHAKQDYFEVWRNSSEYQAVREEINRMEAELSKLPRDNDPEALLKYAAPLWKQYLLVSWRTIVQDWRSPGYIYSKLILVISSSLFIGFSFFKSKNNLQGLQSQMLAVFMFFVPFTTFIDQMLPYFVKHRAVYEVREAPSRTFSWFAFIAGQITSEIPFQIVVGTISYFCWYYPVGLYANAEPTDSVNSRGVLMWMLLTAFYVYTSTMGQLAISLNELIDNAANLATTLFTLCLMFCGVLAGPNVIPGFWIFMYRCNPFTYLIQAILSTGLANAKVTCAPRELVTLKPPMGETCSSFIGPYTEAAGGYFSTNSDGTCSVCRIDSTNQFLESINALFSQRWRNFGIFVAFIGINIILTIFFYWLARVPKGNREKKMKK

What does the source list for Milbemycin oxime [Compound 2]?
FEPIhalf (concentration needed to reduce activity of efflux pump by 50%) [1]: <0.06; FEPIhalf (concentration needed to reduce activity of efflux pump by 50%) [2]: >64; Minimal concentration required to reduce the MIC of fluconazole by sixteen-fold [3]: 1.25 µg/mL; FEPIhalf (concentration needed to reduce activity of efflux pump by 50%) [4]: 0.125; FEPIhalf (concentration needed to reduce activity of efflux pump by 50%) [5]: >64; MIC of fluconazole, Flu + McOxm (2.5 μg/ml) [6]: 2 µg/mL; MIC of compound in the presence of fluconazole (+) ([7]; 1/8 × MIC of fluconazole): > 64 µg/mL; MIC of compound in the absence of fluconazole (−) [7]: > 64 µg/mL; MIC of compound in the presence of fluconazole (+) ([8]; 1/8 × MIC of fluconazole): 4 µg/mL; MIC of compound in the absence of fluconazole (−) [8]: > 64 µg/mL; Minimal concentration required to reduce the MIC of fluconazole by sixteen-fold [9]: <0.07 µg/mL; MIC of compound in the presence of fluconazole (+) (YEM 53 C. krusei; 1/8 × MIC of fluconazole): 2 µg/mL; MIC of compound in the absence of fluconazole (−) (YEM 53 C. krusei): > 64 µg/mL; MIC of compound in the presence of fluconazole (+) (YEM 51 C. glabrata wt; 1/8 × MIC of fluconazole): 16 µg/mL; MIC of compound in the absence of fluconazole (−) (YEM 51 C. glabrata wt): > 64 µg/mL; FEPI MIC with fluconazole, 60% Inh (Aspergillus fumigatus; fluconazole 32 μg/ml (1/4 MIC), 60% inhibition): 2; FEPI MIC with fluconazole, 80% Inh (Aspergillus fumigatus; fluconazole 32 μg/ml (1/4 MIC), 80% inhibition): >64; FEPI MIC with itraconazole, 60% Inh (Aspergillus fumigatus; itraconazole 0.063 μg/ml (1/4 MIC), 60% inhibition): >64; FEPI MIC with itraconazole, 80% Inh (Aspergillus fumigatus; itraconazole 0.063 μg/ml (1/4 MIC), 80% inhibition): >64; FEPI MIC with ketoconazole, 60% Inh (Aspergillus fumigatus; ketoconazole 4 μg/ml (1/4 MIC), 60% inhibition): 0.5; FEPI MIC with ketoconazole, 80% Inh (Aspergillus fumigatus; ketoconazole 4 μg/ml (1/4 MIC), 80% inhibition): 0.5; FEPI MIC (alone) (Aspergillus fumigatus; no azole, 80% inhibition, 35° C., CM Broth): >64; Minimal concentration required to reduce the MIC of fluconazole by sixteen-fold (C. albicans YEM-13 (BEN)): 80 µg/mL; MIC of compound in the presence of fluconazole (+) ([10]; 1/8 × MIC of fluconazole): ≦0.03; MIC of compound in the absence of fluconazole (−) [10]: > 64 µg/mL; MIC of compound in the presence of fluconazole (+) (YEM 30 C. albicans wt; 1/8 × MIC of fluconazole): ≦0.03; MIC of compound in the absence of fluconazole (−) (YEM 30 C. albicans wt): > 64 µg/mL; MIC of compound in the presence of fluconazole (+) ([11]; 1/8 × MIC of fluconazole): > 64 µg/mL; MIC of compound in the absence of fluconazole (−) [11]: > 64 µg/mL; FEPIhalf (concentration needed to reduce activity of efflux pump by 50%) [12]: 64; MIC of compound in the presence of fluconazole (+) ([13]; 1/8 × MIC of fluconazole): 64 µg/mL; MIC of compound in the absence of fluconazole (−) [13]: > 64 µg/mL; FEPIhalf (concentration needed to reduce activity of efflux pump by 50%) [14]: >64; Minimal concentration required to reduce the MIC of fluconazole by sixteen-fold [15]: >80 µg/mL
